The source of these data is PMC9573605, “Exploring Nitric Oxide (NO)-Releasing Celecoxib Derivatives as Modulators of Radioresponse in Pheochromocytoma Cells” (Molecules, 2022).

In general, IC50 refers to the midpoint of a concentration-inhibition curve.

For experiment [1], the system named is MPC-HIF2α tumor spheroids. Briefly: Spheroid regrowth assay with [177Lu]LuCl3 treatment. As to conditions: 10 µM compound with 0.25 MBq [177Lu]LuCl3 for six days; for growth response (spheroid size): compared to controls; for 14-day regrowth probability: controls 50%. The class given is cell-based, mouse. The source says:
Radionuclide therapy is a fast-evolving treatment modality gaining more importance in treating cancer. For treatment of pheochromocytomas and paragangliomas, in particular, somatostatin type 2 receptor-targeted radionuclide therapy with [^177Lu]Lu-(Tyr^3)octreotate is currently investigated in clinical controlled trials (e.g., NCT04029428, NCT03923257, NCT03206060). To assess the additional effects of NO-COXIBs on the outcome of Lu-177 therapy, a simplified in vitro setup was used here, where MPC-HIF2α tumor spheroids were treated with 10 µM of the compounds and simultaneously 0.25 MBq of [^177Lu]LuCl3 for six days.
Genetically modified mouse pheochromocytoma (MPC) cells expressing a codon-optimized Epas1 gene (encoding HIF2α) were cultured as three-dimensional tumor spheroids as published elsewhere. External X-ray beam radiation treatment and [^177Lu]LuCl3 radionuclide treatment was performed as reported previously with some modifications. In brief, spheroids were irradiated with a 200 kV photon beam using a Maxishot X-ray system equipped with a Y.TU/320-D03 tube (YXLON, Hamburg, Germany), growth of spheroids (n = 6) with diameters between 300−400 µm was measured in response to one fixed radiation dose, 15 Gy for X-ray treatment, and 0.25 MBq/mL of [^177Lu]LuCl3 for radionuclide treatment corresponding to a cumulative dose of approximately 2 Gy delivered for 6 days. The applied radiation doses were selected based on the half-maximal spheroid control doses (SCD50) as previously determined for MPC HIF2α spheroids by us. Spheroids were considered as regrown at 100 µm increase in diameter compared to treatment start or at a diameter growth rate of 15 µm per day. Results are reported as spheroid regrowth probability (%).
Figure 5 Effects of NO-COXIBs on radiation treatments of MPC-HIF2α tumor spheroids. (A) Growth responses to X-ray treatment with a radiation dose of 15 Gy in combination with 10 µM NO-COXIBs added to the medium at indicated time points before or after irradiation. (B) Growth responses to [^177Lu]LuCl3 treatment with an initial activity concentration of 0.25 MBq/mL in combination with NO-COXIBs; log2 fold changes in diameter indicate the number of diameter doublings compared to treatment start; 14-day regrowth probability indicates the fraction of spheroids able to regrow within 14 days after treatment start; (black arrows) time point or duration of radiation treatment; (w/o) vehicle controls are shown as black lines; (Ce) celecoxib.

The target in experiment [2] is T1, purified ovine COX-1 (Ovis aries, UniProt P05979).
T1 construct: purchased Cayman Chemical 700100
T1 sequence (P05979 25-600): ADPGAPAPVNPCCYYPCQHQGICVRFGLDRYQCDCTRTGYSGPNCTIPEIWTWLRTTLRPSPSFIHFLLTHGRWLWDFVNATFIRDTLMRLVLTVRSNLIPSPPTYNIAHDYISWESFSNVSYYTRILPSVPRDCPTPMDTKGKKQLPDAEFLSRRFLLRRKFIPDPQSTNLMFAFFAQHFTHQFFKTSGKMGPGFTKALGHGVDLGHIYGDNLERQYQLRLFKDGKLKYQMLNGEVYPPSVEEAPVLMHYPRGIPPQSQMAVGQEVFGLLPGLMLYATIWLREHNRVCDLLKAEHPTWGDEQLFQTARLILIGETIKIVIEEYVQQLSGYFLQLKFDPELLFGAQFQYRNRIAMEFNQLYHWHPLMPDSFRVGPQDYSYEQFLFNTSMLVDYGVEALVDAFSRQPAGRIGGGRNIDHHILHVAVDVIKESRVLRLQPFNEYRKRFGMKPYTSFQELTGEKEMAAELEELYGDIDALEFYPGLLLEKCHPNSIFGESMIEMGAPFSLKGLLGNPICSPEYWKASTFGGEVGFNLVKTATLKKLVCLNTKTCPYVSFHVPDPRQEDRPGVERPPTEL
The experiment can be described thus: COX Fluorescent Inhibitor Screening Assay, COX-1. It is filed as biochemical. The procedure:
(§1) COX inhibition (Table 1) was evaluated in vitro using purified ovine COX-1 and recombinant human COX-2 enzyme in a commercially available “COX Fluorescent Inhibitor Screening Assay KIT” (item no. 700100, Cayman Chemical, Ann Arbor, MI, USA). Celecoxib served as a reference and inhibition data concerning 4a, 4e, 5a and 5e were previously reported by us and is herein discussed for comparison.
(§2) COX inhibition activity against ovine COX-1 and human COX-2 was determined using the fluorescence-based COX assay “COX Fluorescent Inhibitor Screening Assay Kit” (catalog number 700100; Cayman Chemical, Ann Arbor, MI, USA) according to the manufacturer’s instructions. Compounds 6a–d were screened at a concentration of 100 µM, all others were assayed in a concentration range of 0.1 nM to 100 μM in duplicate.

The target in experiment [3] is T2, recombinant human COX-2 (Homo sapiens, UniProt P35354).
T2 construct: purchased Cayman Chemical 700100
T2 sequence (P35354 18-604): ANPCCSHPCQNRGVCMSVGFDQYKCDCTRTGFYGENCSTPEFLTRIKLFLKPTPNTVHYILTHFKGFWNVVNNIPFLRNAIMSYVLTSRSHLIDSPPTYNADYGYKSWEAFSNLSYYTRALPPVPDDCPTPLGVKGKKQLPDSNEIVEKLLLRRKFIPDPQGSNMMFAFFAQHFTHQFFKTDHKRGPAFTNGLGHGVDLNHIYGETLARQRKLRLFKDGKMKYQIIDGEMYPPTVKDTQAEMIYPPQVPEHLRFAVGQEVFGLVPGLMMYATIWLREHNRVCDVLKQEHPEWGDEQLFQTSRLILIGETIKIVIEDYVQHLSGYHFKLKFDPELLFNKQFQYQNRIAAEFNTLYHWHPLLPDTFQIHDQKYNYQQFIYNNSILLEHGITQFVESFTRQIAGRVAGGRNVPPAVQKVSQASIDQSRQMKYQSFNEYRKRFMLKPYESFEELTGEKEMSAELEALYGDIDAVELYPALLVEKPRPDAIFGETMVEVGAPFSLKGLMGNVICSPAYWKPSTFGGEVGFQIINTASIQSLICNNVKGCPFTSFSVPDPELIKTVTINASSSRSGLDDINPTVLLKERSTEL
Briefly: COX Fluorescent Inhibitor Screening Assay, COX-2. It is filed as biochemical. As to conditions: for SI: COX-1 vs COX-2 selectivity index; for IC50: human COX-2. As for the experimental part:
as §1, §2

The subject of experiment [4] is MPC-HIF2a spheroids. The experiment can be described thus: Growth of non-irradiated tumor spheroids. The class given is cell-based, mouse. The conditions noted are these: 10 µM compound, linear regression between 0 and 9 days. The procedure: As a first pilot study, growth responses of MPC-HIF2α spheroids were investigated after two different radiation treatments such as single-dose external beam irradiation (X-ray) and incubation with [^177Lu]LuCl3, respectively. NO-COXIBs were tested at 10 µM for additional effects on radiation treatments against a vehicle-treated control (w/o) and celecoxib (Ce).
4. Growth-rate of tumor spheroids in the presence of NO -COXIBS without radiation treatment
Compound Diameter growth rate
Table S2. Effects of NO-COXIBs on spheroid growth; diameter growth rates of non-irradiated MPC-HIF2a spheroids in presence of 10 µM of compounds determined from linear regression between 0 and 9 days after treatment start; (w/o) vehicle control treated with DMSO

Where [5] appears, read: screened at a concentration of 100 µM.

On to `COc1ccc(-c2c(Cl)c(CO[N+](=O)[O-])nn2-c2ccc(S(C)(=O)=O)cc2)cc1` [5d, {4-Chloro-5-(4-methoxyphenyl)-1-[4-(methylsulfonyl)phenyl]-1H-pyrazol-3-yl}methyl nitrate], for which, in experiment [1], the “growth response (spheroid size)” value is on record as “prevented spheroids from shrinking in size” and the 14-day regrowth probability was 60–80%. The compound also had an IC50 in experiment [2] (0.1 nM to 100 µM in duplicate) above 100 µM. The SI in experiment [3] is above 92. In addition, the IC50 in experiment [3] (0.1 nM to 100 µM in duplicate) was 1.08 µM. Also, the “Diameter growth rate ± SEM” value in experiment [4] stood at 61.2 ± 5.5 µm/day.
As for `CCC(=O)NS(=O)(=O)c1ccc(-n2nc(CO[N+](=O)[O-])cc2-c2ccc(OC)cc2)cc1` [6d, {5-(4-Methoxyphenyl)-1-[4-(N-propionylsulfamoyl)phenyl]-1H-pyrazol-3-yl}methyl nitrate], the “growth response (spheroid size)” value in experiment [1] is “prevented spheroids from shrinking in size”. The 14-day regrowth probability in experiment [1] is listed as 100%. Besides, the IC50 in experiment [2] (setting [5]) and in experiment [3] (setting [5]) was above 100 µM each time. In experiment [4], the “Diameter growth rate ± SEM” value is 63.7 ± 5.9 µm/day.
Take `CCC(=O)NS(=O)(=O)c1ccc(-n2nc(CO[N+](=O)[O-])c(Cl)c2-c2ccc(C)cc2)cc1` [6a, {4-Chloro-1-[4-(N-propionylsulfamoyl)phenyl]-5-(p-tolyl)-1H-pyrazol-3-yl}methyl nitrate]: the “growth response (spheroid size)” value in experiment [1] is recorded as “prevented spheroids from shrinking in size”. The half-inhibitory concentration (IC50) in experiment [2] (setting [5]) and in experiment [3] (setting [5]) was above 100 µM throughout. Besides, the “Diameter growth rate ± SEM” value in experiment [4] is listed as 64.1 ± 6.1 µm/day.
As to `Cc1ccc(-c2c(Cl)c(CO[N+](=O)[O-])nn2-c2ccc(S(C)(=O)=O)cc2)cc1` [5c, {4-Chloro-1-[4-(methylsulfonyl)phenyl]-5-(p-tolyl)-1H-pyrazol-3-yl}methyl nitrate], in experiment [1], the “growth response (spheroid size)” value is on record as “prevented spheroids from shrinking in size” and the 14-day regrowth probability is 60–80%. The compound also had an IC50 in experiment [2] (0.1 nM to 100 µM in duplicate) above 100 µM. In experiment [3], the SI was above 47. Further, the IC50 in experiment [3] (0.1 nM to 100 µM in duplicate) was 2.12 µM. Moreover, the “Diameter growth rate ± SEM” value in experiment [4] is given as 60.4 ± 5.3 µm/day.
Regarding `CCC(=O)NS(=O)(=O)c1ccc(-n2nc(CO[N+](=O)[O-])cc2-c2ccc(C)cc2)cc1` [6c, {1-[4-(N-Propionylsulfamoyl)phenyl]-5-(p-tolyl)-1H-pyrazol-3-yl}methyl nitrate], in experiment [1], the “growth response (spheroid size)” value was “prevented spheroids from shrinking in size”. In addition, the 14-day regrowth probability in experiment [1] is listed as 40%. Also, the IC50 in experiment [2] (setting [5]) and in experiment [3] (setting [5]) was above 100 µM each time. Also, the “Diameter growth rate ± SEM” value in experiment [4] came to 60.0 ± 5.5 µm/day.
For the compound `COc1ccc(-c2cc(CO[N+](=O)[O-])nn2-c2ccc(S(N)(=O)=O)cc2)cc1` [5f, [5-(4-Methoxyphenyl)-1-(4-sulfamoylphenyl)-1H-pyrazol-3-yl]methyl nitrate], the “growth response (spheroid size)” value in experiment [1] is listed as “prevented spheroids from shrinking in size”. Also, the 14-day regrowth probability in experiment [1] is reported as 60–80%. Further, the IC50 in experiment [2] (0.1 nM to 100 µM in duplicate) is above 100 µM; in experiment [3] (0.1 nM to 100 µM in duplicate), 1.18 µM. Further, the SI in experiment [3] is given as above 84. The “Diameter growth rate ± SEM” value in experiment [4] was 61.4 ± 5.2 µm/day.
For `CCC(=O)NS(=O)(=O)c1ccc(-n2nc(CO[N+](=O)[O-])c(Cl)c2-c2ccc(OC)cc2)cc1` [6b, {4-Chloro-5-(4-methoxyphenyl)-1-[4-(N-propionylsulfamoyl)phenyl]-1H-pyrazol-3-yl}methyl nitrate], in experiment [1], the 14-day regrowth probability turned out to be 100%. The IC50 is around 100 µM in experiment [2] (setting [5]) and above 100 µM in experiment [3] (setting [5]). For the same compound, the “Diameter growth rate ± SEM” value in experiment [4] is listed as 63.1 ± 5.3 µm/day.
